This passage reports IC50 results from US7102009B2, “Substituted amine derivatives and methods of use” (Amgen Inc., priority 2001, dated 2006).

The structures appear in SMILES notation.

The assay has as its system Human Umbilical Vein Endothelial cells (VEGF-stimulated HUVEC proliferation). The experiment in a line: HUVEC Proliferation Assay (VEGF-stimulated). Type of assay: cell-based. As to conditions: VEGF 50 ng/mL, 72 h incubation, CyQuant readout, read-out: inhibited VEGF-stimulated HUVEC proliferation at a level below (IC50). The method, then:
Human Umbilical Vein Endothelial cells are purchased from Clonetics, Inc., as cryopreserved cells harvested from a pool of donors. These cells, at passage 1, are thawed and expanded in EBM-2 complete medium, until passage 2 or 3. The cells are trypsinized, washed in DMEM+10% FBS+antibiotics, and spun at 1000 rpm for 10 min. Prior to centrifugation of the cells, a small amount is collected for a cell count. After centrifugation, the medium is discarded, and the cells are resuspended in the appropriate volume of DMEM+10% FBS+antibiotics to achieve a concentration of 3×10^5 cells/mL. Another cell count is performed to confirm the cell concentration. The cells are diluted to 3×10^4 cells/mL in DMEM+10% FBS+antibiotics, and 100 μL of cells are added to a 96-well plate. The cells are incubated at 37° C. for 22 h.
Prior to the completion of the incubation period, compound dilutions are prepared. Five-point, five-fold serial dilutions are prepared in DMSO, at concentrations 400-fold greater than the final concentrations desired. 2.5 μL of each compound dilution are diluted further in a total of 1 mL DMEM+10% FBS+antibiotics (400× dilution). Medium containing 0.25% DMSO is also prepared for the 0 μM compound sample. At the 22-hour timepoint, the medium is removed from the cells, and 100 μL of each compound dilution is added. The cells are incubated at 37° C. for 2-3 h.
During the compound pre-incubation period, the growth factors are diluted to the appropriate concentrations. Solutions of DMEM+10% FBS+antibiotics, containing either VEGF or bFGF at the following concentrations: 50, 10, 2, 0.4, 0.08, and 0 ng/mL are prepared. For the compound-treated cells, solutions of VEGF at 550 ng/mL or bFGF at 220 ng/mL for 50 ng/mL or 20 ng/mL final concentrations, respectively, are prepared since 10 μL of each will be added to the cells (110 μL final volume). At the appropriate time after adding the compounds, the growth factors are added. VEGF is added to one set of plates, while bFGF is added to another set of plates. For the growth factor control curves, the media on wells B4-G6 of plates 1 and 2 are replaced with media containing VEGF or bFGF at the varying concentrations (50-0 ng/mL). The cells are incubated at 37° C. for an additional 72 h.
At the completion of the 72 h incubation period, the medium is removed, and the cells are washed twice with PBS. After the second wash with PBS, the plates are tapped gently to remove excess PBS, and the cells are placed at −70° C. for at least 30 min. The cells are thawed and analyzed using the CyQuant fluorescent dye (Molecular Probes C-7026), following the manufacturer's recommendations. The plates are read on a Victor/Wallac 1420 workstation at 485 nm/530 nm (excitation/emission). Raw data are collected and analyzed using a 4-parameter fit equation in XLFit. IC50 values are then determined.
Regarding `O=C(Nc1ccc(Cl)cc1)c1cccnc1Nc1ccc2cn[nH]c2c1` [Example 3, N-(4-Chlorophenyl)[2-(1H-indazol-6-ylamino)(3-pyridyl)]carboxamide], the IC50 was less than 50 nM. In the case of `CC(C)c1ccc(NC(=O)c2cccnc2Nc2ccc3cn[nH]c3c2)cc1` [Example 5, 2-(1H-Indazol-6-ylamino)-N-(4-isopropyl-phenyl)nicotinamide] it was less than 50 nM. Consider `CC(C)c1cccc(NC(=O)c2cccnc2Nc2ccc3cn[nH]c3c2)c1` [Example 6, [2-(1H-Indazol-6-ylamino)(3-pyridyl)]-N-[3-(methylethyl)phenyl]carboxamide], for which the IC50 is less than 50 nM. In the case of `CCC(C)c1ccc(NC(=O)c2cccnc2Nc2ccc3cn[nH]c3c2)cc1` (stereo not shown) [Example 7, [2-(1H-Indazol-6-ylamino)(3-pyridyl)]-N-[4-(methylpropyl)phenyl]carboxamide] it was less than 50 nM. Consider `CC(C)(C)c1ccc(NC(=O)c2cccnc2Nc2ccc3cn[nH]c3c2)cc1` [Example 8, N-[4-(tert-Butyl)phenyl][2-(1H-indazol-6-ylamino)(3-pyridyl)]carboxamide], for which the IC50 was less than 50 nM. Consider `O=C(Nc1cccc(C(F)(F)F)c1)c1cccnc1Nc1ccc2cn[nH]c2c1` [Example 9, [2-(1H-Indazol-6-ylamino)(3-pyridyl)]-N-[3-(trifluoromethyl)phenyl]carboxamide], for which the IC50 is less than 50 nM. In the case of `CC(C)(C)c1cccc(NC(=O)c2cccnc2Nc2ccc3cn[nH]c3c2)c1` [Example 10, N-[3-(tert-Butyl)phenyl][2-(1H-indazol-6-ylamino)(3-pyridyl)]carboxamide] it was less than 50 nM.

In the case of `NS(=O)(=O)c1cc(NC(=O)c2cccnc2Nc2ccc3cn[nH]c3c2)ccc1Cl` [Example 13, N-3-aminosulfonyl(4-chloro-phenyl)[2-(1H-indazol-6-ylamino)(3-pyridyl)]carboxamide], the IC50 was less than 50 nM.

`Cc1cc(=O)[nH]c2cc(NC(=O)c3cccnc3Nc3ccc4cn[nH]c4c3)ccc12` [Example 14, [2-(1H-Indazol-6-ylamino)(3-pyridyl)]-N-(4-methyl-2-oxo-1,2-dihydroquinol-7-yl)carboxamide]: the IC50 was less than 50 nM. In the case of `O=C(Nc1ccc(C(F)(F)C(F)(F)C(F)(F)C(F)(F)F)cc1)c1cccnc1Nc1ccc2cn[nH]c2c1` [Example 20, [2-(1H-Indazol-6-ylamino)(3-pyridyl)]-N-[4-(1,1,2,2,3,3,4,4,4-nonafluorobutyl)phenyl]carboxamide] it was less than 50 nM; in that of `CC(C)(C)c1ccc(NC(=O)c2cccnc2Nc2ccc3cn[nH]c3c2Br)cc1` [Example 22, N-[4-(tert-Butyl)phenyl]{2-[(7-bromo(1H-indazol-6-yl))amino](3-pyridyl)}carboxamide], less than 50 nM. In the case of `CN1CC=C(c2cc(NC(=O)c3cccnc3Nc3ccc4cn[nH]c4c3)ccc2C(C)(C)C)CC1` [Example 23] it was less than 50 nM; in that of `O=C(Nc1ccc(C(O)(C(F)(F)F)C(F)(F)F)cc1)c1cccnc1Nc1ccc2cn[nH]c2c1` [Example 24], less than 50 nM. In the case of `COc1ccc(C(C)(C)C)cc1NC(=O)c1cccnc1Nc1ccc2cn[nH]c2c1` [Example 25, N-[5-(tert-Butyl)-2-methoxyphenyl][2-(1H-indazol-6-ylamino)(3-pyridyl)]carboxamide] it was less than 50 nM. `O=C1NCCc2ccc(NC(=O)c3cccnc3Nc3ccc4cn[nH]c4c3)cc21` [Example 27, 2-(1H-Indazol-6-ylamino)-N-(1-oxo-1,2,3,4-tetrahydro-isoguinolin-7-yl)-nicotinamide]: the IC50 is less than 50 nM.

Take `CC(C)Oc1ccc(NC(=O)c2cccnc2Nc2ccc3cn[nH]c3c2)cc1` [Example 28, [2-(1H-Indazol-6-ylamino)(3-pyridyl)]-N-[4-(methylethoxy)phenyl]carboxamide]: the IC50 was less than 50 nM.

In the case of `CN1CCN(c2cc(NC(=O)c3cccnc3Nc3ccc4cn[nH]c4c3)ccc2C(C)(C)C)CC1` [Example 31, N-[4-(tert-Butyl)-3-(4-methylpiperazinyl)phenyl][2-(1H-indazol-6-ylamino)(3-pyridyl)]carboxamide], the IC50 was less than 50 nM. In the case of `COc1ccc(NC(=O)c2cccnc2Nc2ccc3cn[nH]c3c2)cc1O` [Example 36, N-(3-Hydroxy-4-methoxyphenyl)[2-(1H-indazol-6-ylamino)(3-pyridyl)]carboxamide] it was less than 50 nM. In the case of `COc1ccc(NC(=O)c2cccnc2Nc2ccc3cn[nH]c3c2)cc1OCCN(C)C` [Example 37, N-{3-[2-(Dimethylamino)ethoxy]-4-methoxyphenyl)[2-(1H-indazol-6-ylamino)(3-pyridyl)]carboxamide] it was less than 50 nM; in that of `COc1ccc(NC(=O)c2cccnc2Nc2ccc3cn[nH]c3c2)cc1OC1CCN(C)CC1` [Example 38, [2-(1H-Indazol-6-ylamino)(3-pyridyl)]-N-[4-methoxy-3-(1-methyl(4-piperidyl)oxy)phenyl]carboxamide], less than 50 nM.

With `O=C(Nc1ccc2c(c1)-c1nncn1CC2)c1cccnc1Nc1ccc2cn[nH]c2c1` [Example 39, [2-(1H-Indazol-6-ylamino)(3-pyridyl)]-N-(5,6,7-trihydro-1,2,4-triazolo[3,4-a]isoquinolin-2-yl)carboxamide], the IC50 is less than 50 nM.

As to `CN(C)CCOc1n[nH]c2cc(Nc3ncccc3C(=O)Nc3ccc(C(C)(C)C)cc3)ccc12` [Example 40, [2-({3-[2-(Dimethylamino)ethoxy](1H-indazol-6-yl)}amino)(3-pyridyl)]-N-[4-(tert-butyl)phenyl]carboxamide], the IC50 was less than 50 nM. In the case of `CC1(C)CN(CC2CCNCC2)c2cc(NC(=O)c3cccnc3Nc3ccc4cn[nH]c4c3)ccc21` [Example 41, N-[3,3-Dimethyl-1-(4-piperidylmethyl)indolin-6-yl][2-(1H-indazol-6-ylamino)(3-pyridyl)]carboxamide] it was less than 50 nM; in that of `CN1CCC(CN2CC(C)(C)c3ccc(NC(=O)c4cccnc4Nc4ccc5cn[nH]c5c4)cc32)CC1` [Example 42, N-[3,3-Dimethyl-1-(1-methyl-piperidin-4-ylmethyl)-2,3-dihydro-1H-indol-6-yl]-2-(1H-indazol-6-ylamino)-nicotinamide], less than 50 nM. In the case of `O=C(Nc1ccc(Oc2ccccc2)cc1)c1cccnc1Nc1ccc2cn[nH]c2c1` [Example 43, 2-(1H-Indazol-6-ylamino)-N-(4-phenoxy-phenyl)-nicotinamide] it was less than 50 nM. In the case of `O=C(Nc1ccc(-c2ccccc2)cc1)c1cccnc1Nc1ccc2cn[nH]c2c1` [Example 45, [2-(1H-Indazol-6-ylamino)(3-pyridyl)]-N-(4-phenylphenyl)carboxamide] it was less than 50 nM; in that of `CS(=O)(=O)c1ccc(NC(=O)c2cccnc2Nc2ccc3cn[nH]c3c2)cc1` [Example 46, [2-(1H-Indazol-6-ylamino)(3-pyridyl)]-N-[4-(methylsulfonyl)phenyl]carboxamide], less than 50 nM; in that of `CN1CCC(N2CC(C)(C)c3ccc(NC(=O)c4cccnc4Nc4ccc5cn[nH]c5c4)cc32)CC1` [Example 48, N-[3,3-Dimethyl-1-(1-methyl(4-piperidyl))indolin-6-yl][2-(1H-indazol-6-ylamino)(3-pyridyl)]carboxamide], less than 50 nM. For `O=C(Nc1ccc(C(F)(F)F)cc1)c1cccnc1Nc1ccc2cn[nH]c2c1` [Example 50, [2-(1H-Indazol-6-ylamino)(3-pyridyl)]-N-[4-(trifluoromethyl)phenyl]carboxamide], the IC50 was less than 50 nM.

Take `CN(C)CCCc1cc(NC(=O)c2cccnc2Nc2ccc3cn[nH]c3c2)cc(C(F)(F)F)c1` [Example 51, N-{3-[3-(Dimethylamino)propyl]-5-(trifluoromethyl)phenyl}[2-(1H-indazol-6-ylamino)(3-pyridyl)]carboxamide]: the IC50 is less than 50 nM. In the case of `CC(C)(C)c1ccc(NC(=O)c2cccnc2Nc2ccc3cn[nH]c3c2)cc1CCCN1CCCCC1` [Example 54, N-[4-(tert-Butyl)-3-(3-piperidylpropyl)phenyl][2-(1H-indazol-6-ylamino)(3-pyridyl)]carboxamide] it was less than 50 nM.
